Reference: ChEMBL document CHEMBL5108051, “Improving the Antimicrobial Performance of Amphiphilic Cationic Antimicrobial Peptides Using Glutamic Acid Full-Scan and Positive Charge Compensation Strategies” (J Med Chem, 2022)
In brackets after ≈: the same amount, converted by molar mass. Activity calls are given as the source filed them. The rule behind the calls is not given here. Peptide text beside a SMILES is read from it.

What was measured:
Escherichia coli [1] = experiment: Antibacterial activity against Escherichia coli ATCC 25922 assessed as growth inhibition measured after 18 to 24 hrs by CLSI based broth microdilution method; type: functional; conditions: time 18-24 hrs
Cell membrane [2] = experiment: Induction of cell membrane disruption in Escherichia coli ATCC 25922 assessed as cell morphological damage measured after 30 mins by […] electron microscope analysis; type: subcellular
[3] = Acute toxicity in BALB/c mouse assessed as pathological changes in liver at 20 to 80 mg/kg, ip administered as single dose measured for 7 days by H and E staining method; type: organism-based; conditions: in vivo, 168 h, dose 20-80 mg/kg, time 7 day
Escherichia coli [4] = experiment: Antibacterial activity against rifampin resistant Escherichia coli ATCC 25922 assessed as fractional inhibitory concentration index in presence of rifampin by checkerboard assay; type: functional
Cell membrane [5] = experiment: Induction of cell membrane disruption in Staphylococcus aureus ATCC 25923 assessed as increase in PI uptake measured after 30 to 120 mins by propidium iodide staining based FACS flow cytometry analysis (reference value: 15%); type: subcellular; conditions: time 30-120 min
Escherichia coli [6] = experiment: Antibacterial activity against rifampin resistant Escherichia coli ATCC 25922 assessed as fractional inhibitory concentration index in presence of gentamicin by checkerboard assay; type: functional
Cell membrane [7] = experiment: Induction of cell membrane disruption in Escherichia coli ATCC 25922 assessed as cell morphological damage measured after 120 mins by […] electron microscope analysis; type: subcellular
Erythrocyte = experiment: Hemolytic activity against mouse RBC measured after 1 hrs; type: toxicity, cell-based
Escherichia coli [8] = experiment: Antibacterial activity against gentamicin resistant Escherichia coli ATCC 25922 assessed as fractional inhibitory concentration index in presence of rifampin by checkerboard assay; type: functional
Staphylococcus aureus [9] = experiment: Antibacterial activity against gentamicin resistant Staphylococcus aureus ATCC 25923 assessed as fractional inhibitory concentration index in presence of kanamycin by checkerboard assay; type: functional
Staphylococcus aureus [10] = experiment: Antibacterial activity against gentamicin resistant Staphylococcus aureus ATCC 25923 assessed as fractional inhibitory concentration index in presence of gentamicin by checkerboard assay; type: functional
Escherichia coli [11] = experiment: Antibacterial activity against Escherichia coli ATCC 25922 assessed as fractional inhibitory concentration index in presence of rifampin by checkerboard assay; type: functional
Staphylococcus aureus [12] = experiment: Induction of cell membrane damage in Staphylococcus aureus ATCC 25923 assessed as increase in nucleic acid leakage by microplate reader assay; type: functional, organism-based; conditions: time 0-6 hrs, TDE = time-dependent effect
Escherichia coli [13] = experiment: Antibacterial activity against Escherichia coli ATCC 25922 assessed as fractional inhibitory concentration index in presence of vancomycin by checkerboard assay; type: functional
Staphylococcus aureus [14] = experiment: Antibacterial activity against gentamicin resistant Staphylococcus aureus ATCC 25923 assessed as fractional inhibitory concentration index in presence of rifampin by checkerboard assay; type: functional
Cell membrane [15] = experiment: Induction of cell membrane disruption in Staphylococcus aureus ATCC 25923 assessed as cell morphological damage measured after 120 mins by […] electron microscope analysis; type: subcellular
Staphylococcus aureus [16] = experiment: Antibacterial activity against Staphylococcus aureus ATCC 25923 assessed as growth inhibition measured after 18 to 24 hrs by CLSI based broth microdilution method; type: functional; conditions: time 18-24 hrs
Staphylococcus aureus [17] = experiment: Antibacterial activity against rifampin resistant Staphylococcus aureus ATCC 25923 assessed as fractional inhibitory concentration index in presence of rifampin by checkerboard assay; type: functional
[18] = Retention time of the compound by RP-HPLC analysis; type: physicochemical
Staphylococcus aureus [19] = experiment: In vivo antimicrobial activity against Staphylococcus aureus ATCC 25923 infected in BALB/C mouse pulmonary infection model at 5 to 10 mg/kg, ip; type: functional, organism-based; conditions: dose 5-10 mg/kg
Staphylococcus aureus [20] = experiment: Antibacterial activity against Staphylococcus aureus ATCC 25923 assessed as fractional inhibitory concentration index in presence of gentamicin by checkerboard assay; type: functional
Staphylococcus aureus [21] = experiment: Antibacterial activity against rifampin resistant Staphylococcus aureus ATCC 25923 assessed as fractional inhibitory concentration index in presence of kanamycin by checkerboard assay; type: functional
Escherichia coli [22] = experiment: Antibacterial activity against Escherichia coli ATCC 25922 assessed as fractional inhibitory concentration index in presence of gentamicin by checkerboard assay; type: functional
[23] = Acute toxicity in BALB/c mouse assessed as mortality at 80 mg/kg, ip administered as single dose measured for 7 days; type: organism-based; conditions: BALB/c, in vivo, time 7 day, read-out: Activity
Cell membrane [24] = experiment: Induction of outer membrane permeabilization to NPN in Escherichia coli ATCC 25922 cells assessed as increase in fluorescence intensity by NPN fluorescent dye based microplate reader assay; type: subcellular
Escherichia coli [25] = experiment: Antibacterial activity against Escherichia coli ATCC 25922 assessed as resistance development measured after 15 passages at sub-MIC concentration by resistance development assay; type: functional, organism-based
Escherichia coli [26] = experiment: Antibacterial activity against gentamicin resistant Escherichia coli ATCC 25922 assessed as fractional inhibitory concentration index in presence of vancomycin by checkerboard assay; type: functional
[27] = Stability of the compound in mouse serum at 10 mM assessed as half life by RP-HPLC analysis; type: ADME, cell-free
Staphylococcus aureus [28] = experiment: Antibacterial activity against rifampin resistant Staphylococcus aureus ATCC 25923 assessed as fractional inhibitory concentration index in presence of vancomycin by checkerboard assay; type: functional
Escherichia coli [29] = experiment: Antibacterial activity against gentamicin resistant Escherichia coli ATCC 25922 assessed as fractional inhibitory concentration index in presence of kanamycin by checkerboard assay; type: functional
Escherichia coli [30] = experiment: Induction of cell membrane damage in Escherichia coli ATCC 25922 assessed as increase in nucleic acid leakage by microplate reader assay; type: functional, organism-based; conditions: time 0-6 hrs, TDE = time-dependent effect
Cell membrane [31] = experiment: Induction of outer membrane permeabilization to NPN in Staphylococcus aureus ATCC 25923 cells assessed as increase in fluorescence intensity measured within 1 min by NPN fluorescent dye based microplate reader assay; type: subcellular
Escherichia coli [32] = experiment: Antibacterial activity against Escherichia coli ATCC 25922 assessed as fractional inhibitory concentration index in presence of kanamycin by checkerboard assay; type: functional
Staphylococcus aureus [33] = experiment: Antibacterial activity against Staphylococcus aureus ATCC 25923 assessed as fractional inhibitory concentration index in presence of kanamycin by checkerboard assay; type: functional
Bacillus subtilis = experiment: Antibacterial activity against Bacillus subtilis ATCC 23857 assessed as growth inhibition measured after 18 to 24 hrs by CLSI based broth microdilution method; type: functional; conditions: time 18-24 hrs
Cell membrane [34] = experiment: Induction of inner membrane permeabilization in Escherichia coli ML-35 ATCC 43837 assessed as increase in absorbance at 1 to 4 times MIC measured at 420 nm in presence of ONPG by microplate reader assay; type: subcellular; conditions: DDE = dose-dependent effect
Klebsiella pneumoniae = experiment: Antibacterial activity against Klebsiella pneumoniae ATCC 700603 assessed as growth inhibition measured after 18 to 24 hrs by CLSI based broth microdilution method; type: functional; conditions: time 18-24 hrs
Cell membrane [35] = experiment: Induction of cytoplasmic membrane depolarization in Escherichia coli ATCC 25922 assessed as increase in fluorescence intensity measured within 1 min by DiSC3-5 dye based fluorescence method; type: subcellular
Staphylococcus aureus [36] = experiment: Antibacterial activity against rifampin resistant Staphylococcus aureus ATCC 25923 assessed as fractional inhibitory concentration index in presence of gentamicin by checkerboard assay; type: functional
Staphylococcus aureus [37] = experiment: Antibacterial activity against Staphylococcus aureus ATCC 25923 assessed as resistance development measured after 15 passages at sub-MIC concentration by resistance development assay; type: functional, organism-based

## CC(C)C[C@H](NC(=O)[C@H](CC(C)C)NC(=O)[C@H](CCC(=O)O)NC(=O)[C@H](CCCCN)NC(=O)[C@H](CC(C)C)NC(=O)[C@H](CC(C)C)NC(=O)[C@H](CCCCN)NC(=O)[C@H](C)NC(=O)[C@@H](NC(=O)[C@H](CCCCN)NC(=O)[C@@H]1CCCN1C(=O)[C@H](CC(C)C)NC(=O)[C@@H](N)Cc1ccccc1)C(C)C)C(N)=O (H-FLPKVAKLLKELL-NH2)
Escherichia coli [1]
  MIC: 8 µM (≈ 12.1 µg/mL)
Cell membrane [2]
  Activity: Active
[3]
  Activity: Non-Toxic
Escherichia coli [4]
  fractional inhibitory concentration index (FICI): 0.75
Cell membrane [5]
  Activity: 49.3%
Escherichia coli [6]
  fractional inhibitory concentration index (FICI): 0.75
Cell membrane [7]
  Activity: Active
Erythrocyte
  MHC10: 202 µM
Escherichia coli [8]
  fractional inhibitory concentration index (FICI): 0.625
Staphylococcus aureus [9]
  fractional inhibitory concentration index (FICI): 1
Staphylococcus aureus [10]
  fractional inhibitory concentration index (FICI): 0.75
Escherichia coli [11]
  fractional inhibitory concentration index (FICI): 0.625
Staphylococcus aureus [12]
  Activity: Tde
Escherichia coli [13]
  fractional inhibitory concentration index (FICI): 0.375
Staphylococcus aureus [14]
  fractional inhibitory concentration index (FICI): 0.625
Cell membrane [15]
  Activity: Active
Staphylococcus aureus [16]
  MIC: 8 µM (≈ 12.1 µg/mL)
Staphylococcus aureus [17]
  fractional inhibitory concentration index (FICI): 0.75
[18]
  Retention_time: 16.475 min
Staphylococcus aureus [19]
  Activity: Active
Staphylococcus aureus [20]
  fractional inhibitory concentration index (FICI): 0.625
Staphylococcus aureus [21]
  fractional inhibitory concentration index (FICI): 0.625
Escherichia coli [22]
  fractional inhibitory concentration index (FICI): 0.5
[23]
  mortality at 168 h: 40%
Cell membrane [24]
  Activity: Active
Escherichia coli [25]
  Activity: Active
Escherichia coli [26]
  fractional inhibitory concentration index (FICI): 0.75
[27]
  half-life at 10000 µM: 9.64 h
Staphylococcus aureus [28]
  fractional inhibitory concentration index (FICI): 1
Escherichia coli [29]
  fractional inhibitory concentration index (FICI): 1.25
Escherichia coli [30]
  Activity: Tde
Cell membrane [31]
  Activity: Active
Escherichia coli [32]
  fractional inhibitory concentration index (FICI): 0.625
Staphylococcus aureus [33]
  fractional inhibitory concentration index (FICI): 0.625
Bacillus subtilis
  MIC: 4 µM (≈ 6.04 µg/mL)
Cell membrane [34]
  Activity: Dde
Klebsiella pneumoniae
  MIC: 16 µM (≈ 24.2 µg/mL)
Cell membrane [35]
  Activity: Active
Staphylococcus aureus [36]
  fractional inhibitory concentration index (FICI): 0.5
Staphylococcus aureus [37]
  Activity: Active
